# Source: patent publication US20250339409A1, “USES OF PAN BET INHIBITORS” (VYNE THERAPEUTICS INC., priority 2021, published 2025)
# “And” between values parts separate entries of the source, which are not always exact repeats. Identical values can stand only once.
# Test system: anti collagen antibodies induced arthritis (ACAIA)
# Assay: Anti collagen antibodies induced arthritis (ACAIA) in mice, intra-articular treatment: paw thickness, arthritis clinical score, body weight;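 note: mouse arthritis induced by IV anti-collagen mAb on day 0 plus IP LPS on day 4, with body weight, caliper paw thickness and 0-4 paw score tracked against a day 0 baseline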
# Details: for Average clinical score per day (untreated): untreated leg
# [1] = BETi1 0.1 mg/kg IA (Group 4), Av
# [2] = BETi1 0.1 mg/kg IA (Group 4), individual animals, 0.1 mg/kg
# [3] = BETi1 1 mg/kg IA (Group 3), individual animals, 1 mg/kg
# [4] = BETi1 10 mg/kg IA (Group 2), Av
# [5] = BETi1 10 mg/kg IA (Group 2), individual animals, 10 mg/kg
structure (smiles),measurement,setting,value
Cn1cc(-c2cccc(O)c2Oc2ccccc2)c2cc[nH]c2c1=O [BETi1],"Weight per day, Day 5",[1],18.6 g
same,"Weight per day, Day 6",[1],18.1 g
same,"Weight per day, Day 7",[1],18.1 g
same,"Weight per day, Day 8",[1],17.9 g
same,"Weight per day, Day 10",[1],18.1 g
same,"Weight per day, Day 12",[1],19.1 g
same,"Weight per day, Baseline",[2],20.2 g and 21 g and 19.7 g and 21.9 g and 20.3 g and 21.5 g and 18.5 g
same,"Weight per day, Day 3",[2],20 g and 21.2 g (2×) and 20.3 g and 22.4 g and 20.6 g and 18.8 g
same,"Weight per day, Day 4",[2],20 g and 21.3 g and 18 g and 21.9 g and 20.4 g and 21.4 g and 19.1 g
same,"Weight per day, Day 5",[2],18.1 g and 19 g and 16.6 g and 20.5 g and 19.4 g (2×) and 17.4 g
same,"Weight per day, Day 6",[2],17.3 g and 18.7 g and 16.5 g and 19.7 g and 18.5 g and 18.9 g and 17.2 g
same,"Weight per day, Day 7",[2],17.8 g and 18.8 g (2×) and 16.8 g and 19.5 g and 18.2 g and 16.7 g
same,"Weight per day, Day 8",[2],17.5 g and 18.4 g (3×) and 16.7 g and 19.5 g and 16.6 g
same,"Weight per day, Day 10",[2],18.2 g and 19 g and 16.8 g (2×) and 19.4 g and 17.7 g and 19.1 g
same,"Weight per day, Day 12",[2],18.8 g and 19.9 g and 17.5 g and 20.7 g and 18.7 g and 20.2 g and 18 g
same,"Weight per day, Baseline","BETi1 1 mg/kg IA (Group 3), Av",20.7 g
same,"Weight per day, Day 3","BETi1 1 mg/kg IA (Group 3), Av",20.7 g
same,"Weight per day, Day 4","BETi1 1 mg/kg IA (Group 3), Av",21 g
same,"Weight per day, Day 5","BETi1 1 mg/kg IA (Group 3), Av",19 g
same,"Weight per day, Day 6","BETi1 1 mg/kg IA (Group 3), Av",18.5 g
same,"Weight per day, Day 7","BETi1 1 mg/kg IA (Group 3), Av",18.6 g
same,"Weight per day, Day 8","BETi1 1 mg/kg IA (Group 3), Av",18.9 g
same,"Weight per day, Day 10","BETi1 1 mg/kg IA (Group 3), Av",19.3 g
same,"Weight per day, Day 12","BETi1 1 mg/kg IA (Group 3), Av",20.1 g
same,"Weight per day, Baseline",[3],20.4 g and 22.5 g and 20.3 g and 19.9 g and 21.5 g and 19.7 g and 20.6 g
same,"Weight per day, Day 3",[3],20.6 g and 22.1 g and 20.8 g and 19.6 g and 21 g and 19.8 g and 20.9 g
same,"Weight per day, Day 4",[3],20.8 g and 22.5 g and 21.1 g and 19.9 g (2×) and 21.7 g and 21 g
same,"Weight per day, Day 5",[3],19.1 g and 20.2 g and 19.2 g (2×) and 17.7 g and 17.9 g and 19.5 g
same,"Weight per day, Day 6",[3],18.7 g and 18.6 g and 18.8 g (2×) and 18 g and 19.3 g and 17.2 g
same,"Weight per day, Day 7",[3],18.3 g and 18.9 g (2×) and 17.8 g and 19.4 g and 17.7 g and 19.2 g
same,"Weight per day, Day 8",[3],18.5 g and 19.8 g and 18.8 g and 17.9 g and 19.3 g and 18.2 g and 19.6 g
same,"Weight per day, Day 10",[3],18.8 g and 21.3 g and 19 g and 18.6 g and 19.3 g and 18.7 g and 19.2 g
same,"Weight per day, Day 12",[3],19.4 g (2×) and 22.5 g and 19.9 g and 19.3 g and 20.1 g (2×)
same,"Weight per day, Baseline",[4],21.3 g
same,"Weight per day, Day 3",[4],21.4 g
same,"Weight per day, Day 4",[4],21.5 g
same,"Weight per day, Day 5",[4],19.6 g
same,"Weight per day, Day 6",[4],19.6 g
same,"Weight per day, Day 7",[4],19.5 g
same,"Weight per day, Day 8",[4],19.2 g
same,"Weight per day, Day 10",[4],19.4 g
same,"Weight per day, Day 12",[4],20.2 g
same,"Weight per day, Baseline",[5],20.2 g and 21.6 g and 20.8 g and 21.7 g and 21.4 g and 22.2 g and 21.3 g
same,"Weight per day, Day 3",[5],20.1 g and 21.5 g (2×) and 21.3 g (2×) and 22 g and 21.8 g
same,"Weight per day, Day 4",[5],20.2 g and 21.4 g (2×) and 22.4 g and 21.6 g and 21.9 g and 21.7 g
same,"Weight per day, Day 5",[5],18.5 g and 20.1 g and 19.3 g and 20.3 g and 19.9 g and 19.4 g
same,"Weight per day, Day 6",[5],18.9 g and 19.8 g and 19.2 g and 19.5 g (2×) and 20.4 g
same,"Weight per day, Day 7",[5],18.7 g and 19.4 g and 19.5 g and 19.6 g (2×) and 20.3 g
same,"Weight per day, Day 8",[5],18.6 g and 19.2 g and 19.6 g and 18.8 g and 20.2 g and 19.1 g
same,"Weight per day, Day 10",[5],18.3 g and 19.2 g and 19.8 g and 19.6 g and 20.5 g and 19.3 g
same,"Weight per day, Day 12",[5],19.3 g and 20.3 g and 20.4 g and 19.9 g and 21.1 g and 20 g
same,Average clinical score per day (untreated),"0.01 mg/kg IA (Group 5), Baseline",0.00 points
same,Average clinical score per day (untreated),"0.01 mg/kg IA (Group 5), Day 3",0.00 points
same,Average clinical score per day (untreated),"0.01 mg/kg IA (Group 5), Day 4",0.00 points
same,Average clinical score per day (untreated),"0.01 mg/kg IA (Group 5), Day 5",0.00 points
same,Average clinical score per day (untreated),"0.01 mg/kg IA (Group 5), Day 6",0.86 points
same,Average clinical score per day (untreated),"0.01 mg/kg IA (Group 5), Day 7",1.57 points
same,Average clinical score per day (untreated),"0.01 mg/kg IA (Group 5), Day 8",1.71 points
same,Average clinical score per day (untreated),"0.01 mg/kg IA (Group 5), Day 10",2.14 points
same,Average clinical score per day (untreated),"0.01 mg/kg IA (Group 5), Day 12",1.43 points
same,Average clinical score per day (untreated),"0.1 mg/kg IA (Group 4), Baseline",0.00 points
same,Average clinical score per day (untreated),"0.1 mg/kg IA (Group 4), Day 3",0.00 points
same,Average clinical score per day (untreated),"0.1 mg/kg IA (Group 4), Day 4",0.00 points
same,Average clinical score per day (untreated),"0.1 mg/kg IA (Group 4), Day 5",0.00 points
same,Average clinical score per day (untreated),"0.1 mg/kg IA (Group 4), Day 6",1.14 points
same,Average clinical score per day (untreated),"0.1 mg/kg IA (Group 4), Day 7",2.00 points
same,Average clinical score per day (untreated),"0.1 mg/kg IA (Group 4), Day 8",2.29 points
same,Average clinical score per day (untreated),"0.1 mg/kg IA (Group 4), Day 10",2.57 points
same,Average clinical score per day (untreated),"0.1 mg/kg IA (Group 4), Day 12",3.00 points
same,Average clinical score per day (untreated),"1 mg/kg IA (Group 3), Baseline",0.00 points
same,Average clinical score per day (untreated),"1 mg/kg IA (Group 3), Day 3",0.00 points
same,Average clinical score per day (untreated),"1 mg/kg IA (Group 3), Day 4",0.00 points
same,Average clinical score per day (untreated),"1 mg/kg IA (Group 3), Day 5",0.00 points
same,Average clinical score per day (untreated),"1 mg/kg IA (Group 3), Day 6",0.71 points
same,Average clinical score per day (untreated),"1 mg/kg IA (Group 3), Day 7",1.43 points
same,Average clinical score per day (untreated),"1 mg/kg IA (Group 3), Day 8",2.43 points
same,Average clinical score per day (untreated),"1 mg/kg IA (Group 3), Day 10",2.00 points
same,Average clinical score per day (untreated),"1 mg/kg IA (Group 3), Day 12",2.43 points
same,Average clinical score per day (untreated),"10 mg/kg IA (Group 2), Baseline",0.00 points
same,Average clinical score per day (untreated),"10 mg/kg IA (Group 2), Day 3",0.00 points
same,Average clinical score per day (untreated),"10 mg/kg IA (Group 2), Day 4",0.00 points
same,Average clinical score per day (untreated),"10 mg/kg IA (Group 2), Day 5",0.00 points
same,Average clinical score per day (untreated),"10 mg/kg IA (Group 2), Day 6",0.83 points
same,Average clinical score per day (untreated),"10 mg/kg IA (Group 2), Day 7",1.83 points
same,Average clinical score per day (untreated),"10 mg/kg IA (Group 2), Day 8",3.00 points
same,Average clinical score per day (untreated),"10 mg/kg IA (Group 2), Day 10",3.00 points
same,Average clinical score per day (untreated),"10 mg/kg IA (Group 2), Day 12",3.33 points
